What follows are compounds tested on hypoxia-inducible endogenous VEGF expression (assay: Hypoxia-inducible endogenous VEGF expression ELISA in HeLa cells, dose-response EC50 (Table 3)). Conditions: Homo sapiens, HeLa, read-out: ELISA EC50 μM.
Assay type: cell-based, human
Experimental: The ability of the Compounds to modulate hypoxia-inducible endogenous VEGF expression may be analyzed as follows. VEGF protein levels may be monitored by an ELISA assay (R&D Systems). Briefly, HeLa cells may be cultured for 24-48 hours under hypoxic conditions (1% O2, 5% CO2, balanced with nitrogen) in the presence or absence of a Compound. The conditioned media may then be assayed by ELISA, and the concentration of VEGF calculated from the standard ELISA curve of each assay.
A dose-response analysis may be performed using the ELISA assay and conditions described above. The conditions for the dose-response ELISA are analogous to those described above. A series of, e.g., seven different concentrations may be analyzed. In parallel, a dose-response cytotoxicity assay may be performed using Cell Titer Glo (Promega) under the same conditions as the ELISA to ensure that the inhibition of VEGF expression was not due to the cytotoxicity.

Compared with `CN1CCN(CC(O)COc2ccc(C3c4[nH]c5ccc(Cl)cc5c4CCN3C(=O)Oc3ccc(F)cc3)cc2)CC1` (stereo not shown) [Compound 963], `CC(=O)N1CCN(CC(O)COc2ccc(C3c4[nH]c5ccc(Cl)cc5c4CCN3C(=O)Oc3ccc(F)cc3)cc2)CC1` (stereo not shown) [Compound 637] is lower in EC50: 0.008 to 0.04 µM for the first, less than 0.008 µM for the second. The second is the more potent here.

First: Cc1ccc(OC(=O)N2CCc3c([nH]c4ccc(Cl)cc34)C2c2ccc(OCC3CCCN(C)C3)cc2)cc1 (stereo not shown) [Compound 951]
Second: Cc1ccc(OC(=O)N2CCc3c([nH]c4ccc(Cl)cc34)C2c2ccc(OCCCN(C)C)cc2)cc1 (stereo not shown) [Compound 502]
The EC50 of the first is lower: 0.008 to 0.04 µM for the first, 0.04 to 0.2 µM for the second.

First: CCN1CCN(C(=O)COc2ccc(C3c4[nH]c5ccc(Cl)cc5c4CCN3C(=O)Oc3ccc(F)cc3)cc2)CC1 (stereo not shown) [Compound 1024]
Second: CC(=O)N1CCN(CCCOc2ccc(C3c4[nH]c5ccc(Cl)cc5c4CCN3C(=O)Oc3ccc(F)cc3)cc2)CC1 (stereo not shown) [Compound 988]
The EC50 of the first is higher: 0.04 to 0.2 µM for the first, less than 0.008 µM for the second. The second is the more potent here.

`O=C(Oc1ccc(Cl)cc1)N1CCc2c([nH]c3ccc(Cl)cc23)C1c1ccc(OCCCN(CCO)CCO)cc1` (stereo not shown) [Compound 1184] and `O=C(Oc1ccc(Cl)cc1)N1CCc2c([nH]c3ccc(Cl)cc23)C1c1ccc(OCCCCCCNCCO)cc1` (stereo not shown) [Compound 782] cannot be ordered by EC50: less than 0.008 µM for the first, less than 0.008 µM for the second.

First: O=C(Oc1ccc(Cl)cc1)N1CCc2c([nH]c3ccc(Cl)cc23)[C@@H]1c1ccc(OC2CCN(CC[C@H](O)CO)CC2)cc1 [Compound 1703]
Second: O=C(Oc1ccc(Cl)cc1)N1CCc2c([nH]c3ccc(Cl)cc23)C1c1ccc(OCCCN2CC[C@@H](O)C2)cc1 (stereo partly shown) [Compound 1476]
The EC50 of the first is higher: 0.2 to 1 µM for the first, 0.04 to 0.2 µM for the second.

`O=C(Oc1ccc(F)cc1)N1CCc2c([nH]c3ccc(Cl)cc23)C1c1ccc(OCCCN2CCOCC2)cc1` (stereo not shown) [Compound 989] and `O=C(Oc1ccc(Cl)cc1)N1CCc2c([nH]c3ccc(Cl)cc23)C1c1ccc(OCCCCCCN2CCOCC2)cc1` (stereo not shown) [Compound 786] cannot be ordered by EC50: less than 0.008 µM for the first, less than 0.008 µM for the second.

First: CCN(CC)CC(O)COc1ccc(C2c3[nH]c4ccc(Cl)cc4c3CCN2C(=O)Oc2ccc(Cl)cc2)cc1 (stereo not shown) [Compound 938]
Second: CN1CCN(CCCCOc2ccc(C3c4[nH]c5ccc(Cl)cc5c4CCN3C(=O)Oc3ccc(F)cc3)cc2)CC1 (stereo not shown) [Compound 740]
The EC50 of the first is lower: less than 0.008 µM for the first, 0.04 to 0.2 µM for the second. The first is the more potent here.

First: COc1ccc(C2c3[nH]c4ccc(Cl)cc4c3CCN2C(=O)Oc2ccc(Cl)cc2)cc1OCCCN1CCOCC1 (stereo not shown) [Compound 1096]
Second: O=C(Oc1ccc(F)cc1)N1CCc2c([nH]c3ccc(Cl)cc23)C1c1cccc(OCCCN2CCSCC2)c1 (stereo not shown) [Compound 1117]
The EC50 of the first is higher: 0.2 to 1 µM for the first, 0.008 to 0.04 µM for the second. The second is the more potent here.

Same assay, conditions: Homo sapiens; HeLa cells, hypoxic conditions (1% O2), 24-48 hours, VEGF in conditioned media; read-out: ELISA EC50

`COc1ccc(C2c3[nH]c4ccc(Cl)cc4c3CCN2C(=O)Oc2ccc(Cl)cc2)cc1F` (stereo not shown) [Compound 1199] and `COc1ccc(OC(=O)N2CCc3c([nH]c4ccc(Cl)cc34)C2c2ccc(OC)c(F)c2)cc1` (stereo not shown) [Compound 1197] fall in the same range of EC50: 0.008 to 0.04 µM for the first, 0.008 to 0.04 µM for the second.

`CC1(C)OC[C@H](CCOc2ccc(C3c4[nH]c5ccc(Cl)cc5c4CCN3C(=O)Oc3ccccc3)cc2)O1` (stereo partly shown) [Compound 1168] and `C=CCOc1ccc(C2c3[nH]c4ccc(Cl)cc4c3CCN2C(=O)Oc2ccccc2)cc1` (stereo not shown) [Compound 413] cannot be ordered by EC50: less than 0.008 µM for the first, less than 0.008 µM for the second.

`Cc1ccc(OC(=O)N2CCc3c([nH]c4ccc(Cl)cc34)[C@@H]2c2ccc(OCCC(O)Cn3ccnn3)cc2)cc1` (stereo partly shown) [Compound 1289] and `O=C(Oc1ccc(Cl)cc1)N1CCc2c([nH]c3ccc(Cl)cc23)[C@@H]1c1ccc(OCCC(O)Cn2ccnn2)cc1` (stereo partly shown) [Compound 1281] cannot be ordered by EC50: less than 0.008 µM for the first, less than 0.008 µM for the second.

`O=C(Oc1ccccc1Cl)N1CCc2c([nH]c3ccc(Cl)cc23)C1c1ccc(OCCCn2ccnc2)cc1` (stereo not shown) [Compound 934] and `Cc1ccc(OC(=O)N2CCc3c([nH]c4ccc(Cl)cc34)C2c2ccc(OCCCn3ccnc3)cc2)cc1` (stereo not shown) [Compound 900] cannot be ordered by EC50: less than 0.008 µM for the first, less than 0.008 µM for the second.

Compared with `O=C(Oc1ccc(F)cc1)N1CCc2c([nH]c3ccc(Cl)cc23)C1c1ccc(OCCn2cncn2)cc1` (stereo not shown) [Compound 834], `O=C(Oc1ccc(F)cc1)N1CCc2c([nH]c3ccc(Cl)cc23)C1c1ccc(OCCCn2cncn2)cc1` (stereo not shown) [Compound 892] is lower in EC50: 0.008 to 0.04 µM for the first, less than 0.008 µM for the second.

`CC1(COc2ccc([C@H]3c4[nH]c5ccc(Cl)cc5c4CCN3C(=O)Oc3ccc(Cl)cc3)cc2)COC(C)(C)OC1` [Compound 1229] and `O=C(Oc1ccc(Cl)cc1)N1CCc2c([nH]c3ccc(Cl)cc23)C1c1ccc(OCC(O)CO)cc1` (stereo not shown) [Compound 629] cannot be ordered by EC50: less than 0.008 µM for the first, less than 0.008 µM for the second.

First: O=C(Oc1ccc(Cl)cc1)N1CCc2c([nH]c3ccc(Cl)cc23)C1c1ccc(OCCNc2cccnc2)cc1 (stereo not shown) [#843]
Second: O=C(Oc1ccc(Cl)cc1)N1CCc2c([nH]c3ccc(Cl)cc23)C1c1ccc(OCCCn2nccn2)cc1 (stereo not shown) [Compound 1016]
The EC50 of the first is lower: less than 0.008 µM for the first, greater than 1 µM for the second.

`Cc1ccc(OC(=O)N2CCc3c([nH]c4ccc(Cl)cc34)C2c2ccc(OCC[C@H](O)CO)cc2)cc1` (stereo partly shown) [Compound 1180] and `Cc1ccc(OC(=O)N2CCc3c([nH]c4ccc(Cl)cc34)C2c2ccc(OCC(O)CO)cc2)cc1` (stereo not shown) [Compound 631] cannot be ordered by EC50: less than 0.008 µM for the first, less than 0.008 µM for the second.

`COc1ccc(OC(=O)N2CCc3c([nH]c4ccc(Cl)cc34)C2c2ccc(OC)cc2F)cc1` (stereo not shown) [Compound 1267] and `COc1ccc(C2c3[nH]c4ccc(Cl)cc4c3CCN2C(=O)Oc2ccc(F)cc2)c(F)c1` (stereo not shown) [Compound 1265] fall in the same range of EC50: 0.008 to 0.04 µM for the first, 0.008 to 0.04 µM for the second.

First: O=C(Oc1ccccc1)N1CCc2c([nH]c3ccc(Cl)cc23)C1c1ccc(OCCCn2ccnn2)cc1 (stereo not shown) [Compound 1077]
Second: O=C(Oc1ccccc1)N1CCc2c([nH]c3ccc(Cl)cc23)C1c1ccc(OCC2OCCO2)cc1 (stereo not shown) [Compound 1050]
The EC50 of the first is higher: 0.008 to 0.04 µM for the first, less than 0.008 µM for the second.

Compared with `O=C(Oc1ccc(Cl)cc1)N1CCc2c([nH]c3ccc(Cl)cc23)C1c1ccc(O)cc1` (stereo not shown) [Compound 577], `Cc1ccc(C2c3[nH]c4ccc(Cl)cc4c3CCN2C(=O)Oc2ccc(Cl)cc2)cc1` (stereo not shown) [Compound 347] is lower in EC50: 0.04 to 0.2 µM for the first, less than 0.008 µM for the second. The second is the more potent here.

Compared with `O=C(Oc1ccc(F)cc1)N1CCc2c([nH]c3ccc(Cl)cc23)C1c1ccc(OCCCCl)cc1` (stereo not shown) [Compound 712], `COc1ccc(OC(=O)N2CCc3c([nH]c4ccc(Cl)cc34)C2c2ccc(OCC(N)=O)cc2)cc1` (stereo not shown) [Compound 1216] is higher in EC50: less than 0.008 µM for the first, 0.008 to 0.04 µM for the second.

`O=C(Oc1ccc(Cl)cc1)N1CCc2c([nH]c3ccc(Cl)cc23)C1c1ccc(I)cc1` (stereo not shown) [Compound 428] showed an EC50 of less than 0.008 µM.

Same assay, conditions: Homo sapiens; HeLa cells, hypoxic conditions (1% O2), VEGF ELISA of conditioned media; read-out: ELISA EC50

`N#CCOc1ccc(C2c3[nH]c4ccc(Cl)cc4c3CCN2C(=O)Oc2ccc(Br)cc2)cc1` (stereo not shown) [Compound 1547] and `C#CCCOc1ccc([C@H]2c3[nH]c4ccc(Cl)cc4c3CCN2C(=O)Oc2ccc(Cl)cc2)cc1` [Compound 1614] cannot be ordered by EC50: less than 0.008 µM for the first, less than 0.008 µM for the second.

`CCOC(=O)NCC(O)CCOc1ccc([C@H]2c3[nH]c4ccc(Cl)cc4c3CCN2C(=O)Oc2ccc(Cl)cc2)cc1` (stereo partly shown) [Compound 1636] and `COCCOC(=O)NCC(O)CCOc1ccc([C@H]2c3[nH]c4ccc(Cl)cc4c3CCN2C(=O)Oc2ccc(C)cc2)cc1` (stereo partly shown) [Compound 1645] cannot be ordered by EC50: less than 0.008 µM for the first, less than 0.008 µM for the second.

First: Cc1ccc(OC(=O)N2CCc3c([nH]c4ccc(Cl)cc34)[C@@H]2c2ccc(OCCC(O)CNS(C)(=O)=O)cc2)cc1 (stereo partly shown) [Compound 1668]
Second: Cc1ccc(OC(=O)N2CCc3c([nH]c4ccc(Cl)cc34)[C@@H]2c2ccc(OCCC(O)CNC(=O)C(C)C)cc2)cc1 (stereo partly shown) [Compound 1640]
The EC50 of the first is higher: 0.008 to 0.04 µM for the first, less than 0.008 µM for the second. The second is the more potent here.

Compared with `CC(C)C(=O)NCC(O)COc1ccc(C2c3[nH]c4ccc(Cl)cc4c3CCN2C(=O)Oc2ccc(Cl)cc2)cc1` (stereo not shown) [Compound 1559], `O=C(Oc1ccc(Cl)cc1)N1CCc2c([nH]c3ccc(Br)cc23)C1c1ccc(OCC[C@H](O)CO)cc1` (stereo partly shown) [Compound 1349] is lower in EC50: 0.008 to 0.04 µM for the first, less than 0.008 µM for the second. The second is the more potent here.
